Data as given in patent US20130040935A1, “CYCLIC KETO-ENOLS FOR THERAPY” (BAYER INTELLECTUAL PROPERTY GMBH, priority 2010, published 2013).
pIC50: −log10 of the molar value. Where two headings read alike, the source gives them in different places.

Tests used:
MCF7 = test: Cell proliferation assay (CellTiter-Glo, 96 h), MCF7; type: cell-based; conditions: Homo sapiens
Procedure: In accordance with the invention, the substances were tested in cell-based assays for the ability of the substances of inhibiting tumour cell proliferation after a 96-hour incubation with the substance. Cell viability was tested using the CellTiter-Glo® luminescent cell viability assay (Promega). The cells were sown at a density of 2000-5000 cells/well (depending on the cell line) in 100 μl growth medium on 96-well microtitre plates. For each cell line examined, cells were sown on a separate plate to determine the luminescence at t=0 hours and t=96 hours. After overnight incubation at 37° C., the luminescence values for the t=0 samples were determined. The dose plates for the t=96 hours points in time were treated with substances diluted with growth medium. The cells were then incubated at 37° C. for 96 hours, and the luminescence values for the t=96 hours sample were then determined. For data analysis, the t=0 values were subtracted from the t=96 hour values for treated and untreated samples. The differences in luminescence in percent between substance-treated samples and control values were used to determine the growth inhibition in percent.
The substances were tested in the following cell lines which represent the stated indications in an exemplary manner: […]

[1] = target: human ACC2 (acetyl-coenzyme A carboxylase 2) (Homo sapiens, UniProt O00763); test: Human ACC2 enzyme assay, Assay B2 (ADP-Glo);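 further: human ACC2 activity read as ADP product, detected by luciferase glow luminescence after residual ATP removal, enzyme near 2 ng/µl in linear range, detection steps at 22 °C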
Sequence of human ACC2 (acetyl-coenzyme A carboxylase 2) (O00763 27-2458 limits assumed): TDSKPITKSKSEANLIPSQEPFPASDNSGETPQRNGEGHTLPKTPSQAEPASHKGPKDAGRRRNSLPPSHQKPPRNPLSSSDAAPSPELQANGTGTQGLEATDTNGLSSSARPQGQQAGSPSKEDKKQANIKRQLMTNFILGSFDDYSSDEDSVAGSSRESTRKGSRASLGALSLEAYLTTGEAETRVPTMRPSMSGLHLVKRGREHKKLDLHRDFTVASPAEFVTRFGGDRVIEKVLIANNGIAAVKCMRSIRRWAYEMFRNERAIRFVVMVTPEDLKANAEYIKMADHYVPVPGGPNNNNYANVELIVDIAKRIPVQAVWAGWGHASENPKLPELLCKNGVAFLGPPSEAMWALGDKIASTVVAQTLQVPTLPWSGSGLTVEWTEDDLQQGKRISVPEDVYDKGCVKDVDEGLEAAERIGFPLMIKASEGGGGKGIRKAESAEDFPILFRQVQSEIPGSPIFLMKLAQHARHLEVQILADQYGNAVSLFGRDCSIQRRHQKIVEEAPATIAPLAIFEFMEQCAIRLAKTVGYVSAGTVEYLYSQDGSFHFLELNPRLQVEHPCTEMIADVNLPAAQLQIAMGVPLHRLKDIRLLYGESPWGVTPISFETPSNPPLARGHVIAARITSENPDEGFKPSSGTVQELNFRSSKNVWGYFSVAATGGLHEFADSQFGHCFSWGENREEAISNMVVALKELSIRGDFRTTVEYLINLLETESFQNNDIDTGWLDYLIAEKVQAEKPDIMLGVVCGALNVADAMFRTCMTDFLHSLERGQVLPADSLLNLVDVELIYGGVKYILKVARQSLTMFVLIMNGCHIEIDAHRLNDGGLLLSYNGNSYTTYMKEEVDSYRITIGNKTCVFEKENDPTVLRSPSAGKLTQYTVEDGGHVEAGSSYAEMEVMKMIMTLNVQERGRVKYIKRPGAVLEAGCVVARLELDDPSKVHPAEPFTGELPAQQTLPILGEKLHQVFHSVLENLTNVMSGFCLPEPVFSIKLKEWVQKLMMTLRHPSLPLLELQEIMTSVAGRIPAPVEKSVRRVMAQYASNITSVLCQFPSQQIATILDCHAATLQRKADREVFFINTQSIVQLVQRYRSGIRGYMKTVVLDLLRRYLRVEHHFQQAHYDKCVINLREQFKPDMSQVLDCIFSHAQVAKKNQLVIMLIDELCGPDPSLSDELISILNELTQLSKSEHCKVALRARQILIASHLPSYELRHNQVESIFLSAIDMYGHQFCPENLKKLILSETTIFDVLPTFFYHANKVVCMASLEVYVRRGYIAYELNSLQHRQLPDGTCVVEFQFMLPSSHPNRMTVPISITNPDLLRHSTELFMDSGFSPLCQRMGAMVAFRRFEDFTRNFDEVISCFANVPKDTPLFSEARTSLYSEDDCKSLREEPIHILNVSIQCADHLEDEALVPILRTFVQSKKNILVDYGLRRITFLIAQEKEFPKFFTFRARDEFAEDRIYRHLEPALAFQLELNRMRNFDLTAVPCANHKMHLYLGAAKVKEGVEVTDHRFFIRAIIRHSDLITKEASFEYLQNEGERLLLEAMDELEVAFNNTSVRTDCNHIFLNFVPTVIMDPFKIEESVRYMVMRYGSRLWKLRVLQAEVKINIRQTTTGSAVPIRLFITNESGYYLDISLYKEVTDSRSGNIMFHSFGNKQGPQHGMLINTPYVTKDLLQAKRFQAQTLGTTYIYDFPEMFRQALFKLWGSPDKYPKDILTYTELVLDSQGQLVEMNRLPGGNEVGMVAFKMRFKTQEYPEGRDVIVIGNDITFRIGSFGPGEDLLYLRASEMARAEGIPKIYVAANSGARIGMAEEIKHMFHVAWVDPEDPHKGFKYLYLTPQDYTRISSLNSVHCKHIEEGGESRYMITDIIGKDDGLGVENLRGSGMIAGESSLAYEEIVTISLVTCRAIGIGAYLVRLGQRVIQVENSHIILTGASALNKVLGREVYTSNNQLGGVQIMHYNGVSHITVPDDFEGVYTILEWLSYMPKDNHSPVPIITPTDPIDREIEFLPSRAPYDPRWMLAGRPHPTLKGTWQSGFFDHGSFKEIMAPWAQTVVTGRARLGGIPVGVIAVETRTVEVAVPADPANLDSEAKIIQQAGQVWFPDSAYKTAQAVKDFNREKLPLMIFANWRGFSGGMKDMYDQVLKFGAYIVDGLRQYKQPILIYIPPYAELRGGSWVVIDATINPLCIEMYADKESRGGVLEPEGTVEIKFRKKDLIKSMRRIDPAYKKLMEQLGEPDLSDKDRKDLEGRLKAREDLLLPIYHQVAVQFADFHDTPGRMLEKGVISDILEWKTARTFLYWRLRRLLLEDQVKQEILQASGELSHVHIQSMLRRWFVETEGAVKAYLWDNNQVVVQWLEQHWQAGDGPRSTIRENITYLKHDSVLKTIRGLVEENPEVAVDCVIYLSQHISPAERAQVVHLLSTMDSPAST

[2] = target: T1, human ACC1 (acetyl-coenzyme A carboxylase alpha transcript variant 1) (Homo sapiens, UniProt Q13085); test: Human ACC1 enzyme assay, Assay B1 (ADP-Glo); type: biochemical
T1 construct: FLAG (C); made in house; host or cells: baculovirus-infected insect cells (Hi5)

[3] = Assay B1, ADP-Glo, read-out: ACC 1 (=B1) IC50
[4] = Assay B1, read-out: ACC 1 (=B1) IC50

pIC50 [2, 4] | SMILES | pIC50 [1] | pIC50 [2] | further results
 | COC1CCC2(CC1)OC(=O)C(c1c(C)ccc(-c3ccc(Cl)cc3)c1C)=C2O (stereo not shown) [2-34, 3-(4′-chloro-2,4-dimethylbiphenyl-3-yl)-4-hydroxy-8-methoxy-1-oxaspiro[4.5]dec-3-en-2-one] |  |  | pIC50 (MCF7; MCF7 cells): 6.37
 | Cc1ccc(-c2ccc(Cl)cc2)cc1C1=C(O)C2(CCCCC2)SC1=O [3-2, 3-(4′-chloro-4-methylbiphenyl-3-yl)-4-hydroxy-1-thiaspiro[4.5]dec-3-en-2-one] |  |  | pIC50 (MCF7; MCF7, Table 9a, 96-hour incubation): 6.34
 | Cc1ccc(-c2ccc(Cl)cc2)cc1C1=C(O)C2(CCCCC2)OC1=O [2-10, 3-(4′-chloro-4-methylbiphenyl-3-yl)-4-hydroxy-1-oxaspiro[4.5]dec-3-en-2-one] | 5.33 |  | pIC50 [2, 3]: 7.17
5.93 | Cc1ccc(-c2cccc(Cl)c2)cc1C1=C(O)C2(CCCCC2)CC1=O [6-3, 3-(3′-chloro-4-methylbiphenyl-3-yl)-4-hydroxyspiro[4.5]dec-3-en-2-one] | < 4.70 |  | 
 | Cc1ccc(-c2ccc(Cl)cc2)c(C)c1C1C(=O)N2CCOCCN2C1=O [8-8, 8-(4′-chloro-2,4-dimethylbiphenyl-3-yl)tetrahydro-7H-pyrazolo[1,2-d][1,4,5]oxadiazepine-7,9(8H)-dione] | < 4.70 | 5.88 | 
6.42 | Cc1cc(C)c(-c2c(O)c3ccc(Cl)cc3[nH]c2=O)cc1-c1ccc(Cl)cc1 [9-12, 7-chloro-3-(4′-chloro-4,6-dimethyl-biphenyl-3-yl)-4-hydroxyquinolin-2(1H)-one] | 5.68 |  | 
5.89 | Cc1ccc(-c2ccc(C(F)(F)F)cc2)cc1-c1c(O)c2ccc(Cl)cc2[nH]c1=O [9-6, 7-chloro-4-hydroxy-3-[4-methyl-4′-(trifluoromethy)biphenyl-3-yl]quinolin-2(1H)-one] | < 4.70 |  | 
6.72 | O=c1[nH]c2cc(Cl)ccc2c(O)c1-c1cc(-c2ccc(Cl)cc2)ccc1Cl [9-13, 7-chloro-3-(4,4′-dichlorobiphenyl-3-yl)-4-hydroxyquinolin-2(1H)-one] | 5.40 |  | 
6.27 | Cc1ccc(-c2ccc(Cl)cc2)cc1C1=C(O)C(C)N(C(C)C)C1=O (stereo not shown) [1-19, 3-(4′-chloro-4-methylbiphenyl-3-yl)-4-hydroxy-5-methyl-1-(propan-2-yl)-1,5-dihydro-2H-pyrrol-2-one] | ≤ 4.70 |  | 
 | Cc1ccc(-c2ccc(Cl)cc2)c(C)c1C1=C(O)C2(CCCC2)OC1=O [2-2, 3-(4′-chloro-2,4-dimethylbiphenyl-3-yl)-4-hydroxy-1-oxaspiro[4.4]non-32--en-2-one] | < 4.70 | 5.63 | 
 | Cc1cc(C)c(-c2ccc(Cl)cc2)cc1C1=C(O)C2(CCOCC2)OC1=O [2-41, 3-(4′-chloro-4,6-dimethylbiphenyl-3-yl)-4-hydroxy-1,8-dioxaspiro[4.5]dec-3-en-2-one] | 5.18 |  | pIC50 [2, 3]: 6.37
5.88 | Cc1ccc(-c2ccc(F)cc2)c(C)c1C1=C(O)C2(CCCCC2)NC1=O [1-40, 3-(4′-fluoro-2,4-dimethylbiphenyl-3-yl)-4-hydroxy-1-azaspiro[4.5]dec-3-en-2-one] | < 4.70 |  | 
 | O=C1OC2(CCC3(CCCO3)CC2)C(O)=C1c1cc(-c2ccc(Cl)cc2)ccc1Cl (stereo not shown) [2-27, 3-(4,4′-dichlorobiphenyl-3-yl)-4-hydroxy-1,9-dioxadispiro[4.2.4.2]tetradec-3-en-2-one] | 5.15 | 6.10 | 
 | Cc1cc(C)c(-c2ccc(Cl)cc2)c(C)c1C1=C(O)C2(CCCC2)OC1=O [2-49, 3-(4′-chloro-2,4,6-trimethylbiphenyl-3-yl)-4-hydroxy-1-oxaspiro[4.4]non-3-en-2-one] | < 4.70 | ≤ 4.70 | 
 | COC1CCC2(CC1)SC(=O)C(c1cc(-c3ccc(Cl)cc3)ccc1C)=C2O (stereo not shown) [3-1, 3-(4′-chloro-4-methylbiphenyl-3-yl)-4-hydroxy-8-methoxy-1-thiaspiro[4.5]dec-3-en-2-one] | 4.81 | 5.85 | 
 | Cc1ccc(-c2ccc(Cl)cc2)cc1C1=C(O)C2(CCCCCC2)OC1=O [2-38, 3-(4′-chloro-4-methylbiphenyl-3-yl)-4-hydroxy-1-oxaspiro[4.6]undec-3-en-2-one] | 5.13 | 6.41 | 
 | CC[C@]1(OC)CC[C@@]2(CC1)NC(=O)C(c1c(C)ccc(-c3ccc(Cl)cc3)c1C)=C2O [1-88, (5r,8r)-3-(4′-chloro-2,4-dimethylbiphenyl-3-yl)-8-ethyl-4-hydroxy-8-methoxy-1-azaspiro[4.5]dec-3-en-2-one] | 4.93 | 6.34 | 

pIC50 [2, 4] | SMILES | pIC50 [1] | pIC50 [2] | further results
 | COCCO[C@@H]1CCC[C@]2(C1)NC(=O)C(c1cc(-c3ccc(Cl)cc3)ccc1Cl)=C2O (relative stereo) [1-74, rel-(5R,7R)-3-(4,4′-dichlorobiphenyl-3-yl)-4-hydroxy-7-(2-methoxyethoxy)-1-azaspiro[4.5]dec-3-en-2-one] | < 4.70 | 5.62 | 
6.01 | Cc1ccc(-c2ccc(Cl)cc2)cc1C1=C(O)CN(C2CC2)C1=O [1-18, 3-(4′-chloro-4-methylbiphenyl-3-yl)-1-cyclopropyl-4-hydroxy-1,5-dihydro-2H-pyrrol-2-one] | 4.79 |  | 
 | Cc1ccc(-c2ccc(Cl)cc2)cc1C1=C(O)C2(CCC3(CC2)OCCO3)OC1=O [2-15, 11-(4′-chloro-4-methylbiphenyl-3-yl)-12-hydroxy-1,4,9-trioxadispiro[4.2.4.2]tetradec-11-en-10-one] | 5.10 |  | pIC50 [2, 3]: 6.95
6.36 | CCOC1CCC2(CC1)NC(=O)C(c1cc(-c3ccc(Cl)cc3)ccc1C)=C2O (stereo not shown) [1-28, 3-(4′-chloro-4-methylbiphenyl-3-yl)-8-ethoxy-4-hydroxy-1-azaspiro[4.5]dec-3-en-2-one] | 5.68 |  | 
5.94 | CC1(C)COC2(CCC3(CC2)NC(=O)C(c2cc(-c4ccc(Cl)cc4)ccc2Cl)=C3O)OC1 [1-65, 3-(4,4′-dichlorobiphenyl-3-yl)-4-hydroxy-11,11-dimethyl-9,13-dioxa-1-azadispiro[4.2.5.2]pentadec-3-en-2-one] | 4.83 |  | 
 | Cc1ccc(-c2ccc(Cl)cc2)cc1C1=C(O)C2(CCC3(CC2)OCCCO3)NC1=O [1-59, 3-(4′-chloro-4-methylbiphenyl-3-yl)-4-hydroxy-9,13-dioxa-1-azadispiro[4.2.5.2]pentadec-3-en-2-one] | 4.94 | 6.58 | 
 | Cc1ccc(-c2cccc(Cl)c2)cc1C1=C(O)C2(CCCCCC2)OC1=O [2-50, 3-(3′-chloro-4-methylbiphenyl-3-yl)-4-hydroxy-1-oxaspiro[4.6]undec-3-en-2-one] | 4.81 | 5.89 | 
 | Cc1ccc(-c2ccc(Cl)cc2)cc1C1=C(O)C2(CCC3(CC2)OCC(C)O3)NC1=O (stereo not shown) [1-63, 11-(4′-chloro-4-methylbiphenyl-3-yl)-12-hydroxy-2-methyl-1,4-dioxa-9-azadispiro[4.2.4.2]tetradec-11-en-10-one] | 5.14 | 6.56 | 
 | Cc1ccc(-c2ccc(Cl)cc2)c(C)c1C1=C(O)C2(CCC3(CC2)OCCO3)NC1=O [1-70, 11-(4′-chloro-2,4-dimethylbiphenyl-3-yl)-12-hydroxy-1,4-dioxa-9-azadispiro[4.2.4.2]tetradec-11-en-10-one] | 5.53 | 6.54 | 
 | O=C1NC2(CCC3(CC2)OCCCO3)C(O)=C1c1cc(-c2ccc(Cl)cc2)ccc1Cl [1-58, 3-(4,4′-dichlorobiphenyl-3-yl)-4-hydroxy-9,13-dioxa-1-azadispiro[4.2.5.2]pentadec-3-en-2-one] | 4.70 | 6.36 | 
 | CCOC1CCC2(CC1)NC(=O)C(c1c(C)cc(C)c(-c3ccc(Cl)cc3)c1C)=C2O (stereo not shown) [1-75, 3-(4′-chloro-2,4,6-trimethylbiphenyl-3-yl)-8-ethoxy-4-hydroxy-1-azaspiro[4.5]dec-3-en-2-one] | 6.10 | 5.25 | 
 | COC1CCCC2(C1)OC(=O)C(c1cc(-c3ccc(Cl)cc3)ccc1C)=C2O (stereo not shown) [2-14, 3-(4′-chloro-4-methylbiphenyl-3-yl)-4-hydroxy-7-methoxy-1-oxaspiro[4.5]dec-3-en-2-one] | < 4.70 |  | pIC50 [2, 3]: 6.11
 | COC1CCCC2(C1)OC(=O)C(c1cc(-c3ccc(Cl)cc3)c(C)cc1C)=C2O (stereo not shown) [2-11, 3-(4′-chloro-4,6-dimethylbiphenyl-3-yl)-4-hydroxy-7-methoxy-1-oxaspiro[4.5]dec-3-en-2-one] | 4.91 |  | pIC50 [2, 3]: 5.90
6.08 | CC1COC2(CCC3(CC2)NC(=O)C(c2cc(-c4ccc(Cl)cc4)ccc2Cl)=C3O)OC1 (stereo not shown) [1-69, 3-(4,4′-dichlorobiphenyl-3-yl)-4-hydroxy-11-methyl-9,13-dioxa-1-azadispiro[4.2.5.2]pentadec-3-en-2-one] | < 4.70 |  | 
 | Cc1ccc(-c2ccc(Cl)cc2)cc1C1=C(O)CN(C(C)C)C1=O [1-17, 3-(4′-chloro-4-methylbiphenyl-3-yl)-4-hydroxy-1-(propan-2-yl)-1,5-dihydro-2H-pyrrol-2-one] | 4.94 | 6.26 | 
 | COC1CCCC2(C1)NC(=O)C(c1c(C)ccc(-c3ccc(Cl)cc3)c1C)=C2O (stereo not shown) [1-72, 3-(4′-chloro-2,4-dimethylbiphenyl-3-yl)-4-hydroxy-7-methoxy-1-azaspiro[4.5]dec-3-en-2-one] | 4.83 | 5.94 | 
